Measured values published in patent US8652786B2, “Method for predicting responsiveness to drugs” (The General Hospital Corporation, priority 2005, dated 2014).
Entries after “also recorded” stand apart in the source; their conditions may differ.

Experiments:
[1] = test system: ERK1/2, AKT, STAT3, or FAK; assay: Immunoblot of baseline phosphorylation of downstream effectors in Amp− cells; format: cell-based, human; conditions: 3 h
Description: (§1) FIG. 3: Constitutive activation of MET and activation of downstream signaling pathways in Amp^+ cells. (FIG. 3A) MET is constitutively activated in the Amp^+ cells. […] (FIG. 3B) Effect of HGF on MET activation in Amp^+ and Amp^− cells (representative immunoblots). Cells were serum-starved for 24 h and treated with 40 ng/ml HGF for 10 minutes. Phosphorylation of MET (Y1234/1235) is unaltered in Amp^+ cells treated with HGF, but it is induced by HGF in Amp^− cells (total MET control).
(§2) Cells are costained with DAPI to show nuclei.
(§3) Cells were either directly lysated in 2× sample buffer or in RIPA buffer (150 mM NaCl, 50 mM Tris pH 8.0, 1% NP40, 0.5% DOC, 0.1% SDS, 1 mM EDTA, 10 mM NaF, 1 mM Na-orthovanadate, 1× protease inhibitor cocktail (Roche; Indianapolis, Ind.)). Cell lysates were sonicated for 10 sec and cleared by centrifugation at 14,000 rpm for 10 min at 4° C. Cleared lysates were boiled in sample buffer and loaded onto 10% SDS-PAGE gel. For immunoblotting analysis, proteins were transferred onto Immobilon PVDF membrane (Millipore; Bedford, Mass.) and visualized with Western Lightning Plus chemiluminescence kit (Perkin Elmer; Boston, Mass.).

Amp− cells [2] = assay: MTT viability, gastric cancer cell lines without MET amplification; format: cell-based, human; conditions: 12 of 12 Amp− cell lines, 96 h
MET [3] = assay: Immunoblot of constitutive MET autophosphorylation in Amp+ cells; format: cell-based, human; conditions: 50 nM, 3 h
[4] = test system: ERK1/2, AKT, STAT3, and FAK; assay: Immunoblot of baseline phosphorylation of downstream effectors in Amp+ cells; format: cell-based, human; conditions: 50 nM, 3 h
Description: as §1, §2, §3

Amp− cells [5] = assay: Growth curve (SYTO60), Amp− cells; format: cell-based, human; conditions: 1 μM, up to 6 days
Amp+ cells [6] = assay: Apoptosis induction (cleaved caspase-3 staining, PARP cleavage), Amp+ cells; format: cell-based, human
Description: as §2
Cells were plated on coverslips in 12-well dishes and grown to approximately 75% confluency in 10% serum. […] After 72 h the cells were fixed with 4% paraformaldehyde for 20 minutes. Permeabilization with 1% NP40 for 5 minutes was followed by blocking with 3% BSA for 30 minutes. The coverslips were then incubated overnight at 4° C. with cleaved caspase-3 antibody at 1:200 dilution. The next day, the coverslips were washed 3 times with PBS and incubated with a secondary antibody (goat anti-rabbit FITC-conjugated) for 1 h at 1:250 dilution. Following 5 washes with PBS, coverslips were mounted in Vectashield mounting medium containing DAPI (Vector Laboratories; Burlingame, Calif.).
Apoptosis Induction Assay. […] After 72 h, cells were fixed with 4% paraformaldehyde for 20 min, permeabilized by using 1% Nonidet P-40 for 5 min, and blocked with 3% BSA for 30 min. The coverslips were then incubated overnight at 4° C. with cleaved caspase-3 antibody at 1:200 dilution. The next day, the coverslips were washed three times with PBS and incubated with a secondary antibody (goat anti-rabbit FITC-conjugated) for 1 h at 1:250 dilution. After five washes with PBS, coverslips were mounted in Vectashield mounting medium containing DAPI (Vector Laboratories), and staining was visualized by fluorescent microscopy.

[7] = test system: gastric cancer cell line MKN45; assay: Drug-sensitivity screen of 40 cancer cell lines, MKN45; format: cell-based, human; conditions: 3 days, DNA staining; MET-amplified line
Description: (§4) Cells were cultured and analyzed in triplicate within microtiter plates. Cell numbers were quantitated by DNA staining, 3 days after addition of various concentrations of drugs and expressed as a fraction of matched untreated cultures. For each drug concentration, cell lines with relative drug sensitivity (<50% of untreated control growth) are shown in darkest staining, intermediate sensitivity (50-75%) in […], and drug insensitivity (>75%) in intermediate shading.
(§5) Cellular Proliferation and Viability Assays. […] For quantitation of cellular proliferation, cells were fixed at appropriate time points in 4% paraformaldehyde, and all plates were stained simultaneously by using the fluorescent nucleic acid stain SYTO60 (Molecular Probes) at 1:8,000 dilution in PBS. Quantitation was done by measuring the […] at 700 nm by using the Odyssey Imaging System (LI-COR, Lincoln, Nebr.). The relative cell number was obtained by normalizing treated samples to matched untreated specimens. For quantitation of cell viability, cultures were stained after 4 days by using the MTT assay. Briefly, 10 μl of 5 mg/ml MTT (Thiazolyl blue) solution was added to each well and incubated for 2 h at 37° C. […] The results were quantitated spectrophotometrically by using a test wavelength of 570 nm and a reference wavelength of 630 nm.

Amp+ cells [8] = assay: MTT viability, gastric cancer cell lines with MET amplification; format: cell-based, human; conditions: 5 of 5 Amp+ cell lines, 96 h
MET [9] = conditions: Morotti et al. 2002; cited from earlier work
[10] = test system: GTL-16 gastric carcinoma cells; conditions: GTL-16 cells; cited from earlier work
MET [11] = conditions: Morotti et al. 2002; cited from earlier work; remark: listed apart in the source
[12] = test system: NCI-H1975 NSCLC cell line; assay: Drug-sensitivity screen of 40 cancer cell lines, NCI-H1975; format: cell-based, human; conditions: gefitinib; L858R and T790M EGFR
Description: as §4, §5

NCI-H1650 = assay: Drug-sensitivity screen of 40 cancer cell lines, NCI-H1650; format: cell-based, human; conditions: gefitinib 100 nM to 10 μM, 3 days, DNA staining; del E746-A750 EGFR
Description: as §4, §5

SMILES: Cc1[nH]c(/C=C2\C(=O)Nc3ccc(S(=O)(=O)Cc4c(Cl)cccc4Cl)cc32)c(C)c1C(=O)N1CCC[C@@H]1CN1CCCC1 [PHA-665752, (3Z)-5-[(2,6-dichlorobenzyl)sulfonyl]-3-[(3,5-dimethyl-4-{[(2R)-2-(pyrrolidin-1-ylmethyl)pyrrolidin-1-yl]carbonyl}-1H-pyrrol-2-yl)methylene]-1,3-dihydro-2H-indol-2-one]
- baseline phosphorylation of ERK1/2, AKT, STAT3, FAK [1]: no effect
- effect on number of viable cells (Amp− cells [2]): resistant; also recorded: no effect
- constitutive MET autophosphorylation (MET [3]): effectively suppressed
- baseline phosphorylation of downstream effectors ERK1/2, AKT, STAT3, FAK [4]: effectively abrogated
- effect on proliferation rate (Amp− cells [5]): unaffected
- induction of apoptosis (Amp+ cells [6]; Amp+ cells, cleaved caspase-3 (1 μM, 72 h), PARP cleavage (500 nM, 72 h)): apoptosis
- course of cell death (Amp+ cells [6]; MKN45 cells): more delayed but prolonged cell death
- PARP-cleavage signal (Amp+ cells [6]; SNU-5 cells, 72 h): prominent PARP-cleavage signal
- Extreme sensitivity (concentration) [7]: 100 nM
- effect on number of viable cells (Amp+ cells [8]): dramatic decrease in the number of viable cells; also recorded: dramatic reduction in cell numbers

SMILES: COC(=O)[C@@]1(O)C[C@H]2O[C@]1(C)n1c3ccccc3c3c4c(c5c6ccccc6n2c5c31)C(=O)NC4 [K252a]
- Met autophosphorylation (MET [9]): inhibits Met autophosphorylation
- Met-driven proliferation [10]: reduces Met-driven proliferation
- inhibition of Met mediated signals (MET [11]): inhibit Met mediated signals at nanomolar concentrations

SMILES: COc1cc2ncnc(Nc3ccc(F)c(Cl)c3)c2cc1OCCCN1CCOCC1 [gefitinib]
- sensitivity in the assay [12]: relatively resistant
- Extreme sensitivity (concentration) (NCI-H1650): 100 nM
